From patent publication US20060122282A1, “METHOD FOR TREATING SKIN DISORDERS WITH XANTHOPHYLLS” (priority 2004, published 2006) come the findings set out here.

A short description of this test: blister healing of the skin (blisters raised, roofs cut off). The format is in vivo, human. Conditions: topical application before raising the blister; alone or in combination with xanthophylls.

Excerpt: Experiments have been performed wherein blisters have been raised and the roofs cut off of the skins of individuals of various ages.

Regarding `CC1=C(/C=C/C(C)=C/C=C/C(C)=C/C(=O)O)C(C)(C)CCC1` [tretinoin, all-trans retinoic acid], the “healing time of blisters” value was “halves”.
